For 22 molecules, IC50 results are on record in patent US12448395B2 (BRISTOL-MYERS SQUIBB COMPANY, priority 2019, dated 2025).

A value given as a limit tells only on which side of the number the result lay.

The target in the assay is T1, human TLR9 (Homo sapiens, UniProt Q9NR96).
T1 sequence (Q9NR96 26-1032): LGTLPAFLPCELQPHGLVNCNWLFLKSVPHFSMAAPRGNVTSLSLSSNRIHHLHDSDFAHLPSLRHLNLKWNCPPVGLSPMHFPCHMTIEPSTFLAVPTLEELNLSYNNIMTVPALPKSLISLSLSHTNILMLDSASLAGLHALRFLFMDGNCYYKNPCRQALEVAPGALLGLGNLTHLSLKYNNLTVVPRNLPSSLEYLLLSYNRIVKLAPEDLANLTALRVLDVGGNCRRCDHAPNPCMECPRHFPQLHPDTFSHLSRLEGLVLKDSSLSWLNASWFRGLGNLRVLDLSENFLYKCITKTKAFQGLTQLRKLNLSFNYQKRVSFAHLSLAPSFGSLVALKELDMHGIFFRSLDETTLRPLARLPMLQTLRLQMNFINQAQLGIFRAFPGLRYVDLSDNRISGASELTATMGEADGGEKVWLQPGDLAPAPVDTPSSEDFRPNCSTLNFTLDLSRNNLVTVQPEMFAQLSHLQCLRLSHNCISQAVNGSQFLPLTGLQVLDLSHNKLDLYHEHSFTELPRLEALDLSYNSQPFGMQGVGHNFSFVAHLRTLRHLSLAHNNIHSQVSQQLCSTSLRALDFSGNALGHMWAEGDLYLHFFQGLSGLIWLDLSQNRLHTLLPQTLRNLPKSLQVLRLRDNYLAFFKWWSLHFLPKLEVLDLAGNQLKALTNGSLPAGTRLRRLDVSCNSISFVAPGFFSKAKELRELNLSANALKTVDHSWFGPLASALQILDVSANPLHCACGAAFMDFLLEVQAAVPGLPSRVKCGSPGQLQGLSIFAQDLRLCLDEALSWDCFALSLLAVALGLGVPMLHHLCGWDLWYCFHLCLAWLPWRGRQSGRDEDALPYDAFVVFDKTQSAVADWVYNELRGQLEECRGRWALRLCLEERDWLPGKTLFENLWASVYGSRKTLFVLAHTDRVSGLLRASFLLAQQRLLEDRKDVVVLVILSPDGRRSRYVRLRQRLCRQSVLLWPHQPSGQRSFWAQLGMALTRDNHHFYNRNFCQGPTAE
Put plainly: TLR9 inhibition reporter assay (HEK-Blue SEAP, ODN2006 stimulation). The class given is cell-based. The following applies: HEK-Blue cells overexpressing human TLR9, ODN2006 5 nM. Here is the method:
TLR7/8/9 Inhibition Reporter Assays
HEK-Blue™-cells (Invivogen) overexpressing human TLR7, TLR8 or TLR9 receptors were used for screening inhibitors of these receptors using an inducible SEAP (secreted embryonic alkaline phosphatase) reporter gene under the control of the IFN-β minimal promoter fused to five NF-κB and AP-1-binding sites. Briefly, cells are seeded into Greiner 384 well plates (15000 cells per well for TLR7, 20,000 for TLR8 and 25,000 for TLR9) and then treated with test compounds in DMSO to yield a final dose response concentration range of 0.05 nM-50 μM. After a 30 minute compound pre-treatment at room temperature, the cells are then stimulated with a TLR7 ligand (gardiquimod at a final concentration of 7.5 μM), TLR8 ligand (R848 at a final concentration of 15.9 μM) or TLR9 ligand (ODN2006 at a final concentration of 5 nM) to activate NF-κB and AP-1 which induce the production of SEAP. After a 22 hour incubation at 37° C., 5% CO2, SEAP levels are determined with the addition of HEK-Blue™ Detection reagent (Invivogen), a cell culture medium that allows for detection of SEAP, according to manufacturer's specifications. The percent inhibition is determined as the % reduction in the HEK-Blue signal present in wells treated with agonist plus DMSO alone compared to wells treated with a known inhibitor.
In general terms: A reporter such as luciferase makes a cellular process visible.

By IC50 is commonly meant the midpoint of a concentration-inhibition curve. Higher therefore signals weaker potency. Regarding `CNC(=O)CN1CCN(c2nc3c(C(C)C)c(-c4cn5ncnc5c(C)c4C)[nH]c3s2)[C@@H](C)C1` [Example 342, (S)-2-(4-(5-(7,8-dimethyl-[1,2,4]triazolo[1,5-a]pyridin-6-yl)-6-isopropyl-4H-pyrrolo[3,2-d]thiazol-2-yl)-3-methylpiperazin-1-yl)-N-methylacetamide], the IC50 was more than 50 µM.
The molecule `Cc1cc(-c2[nH]c3sc(C(=O)NC4COC4)nc3c2C(C)C)cn2ncnc12` [Example 397, 6-isopropyl-5-(8-methyl-[1,2,4]triazolo[1,5-a]pyridin-6-yl)-N-(oxetan-3-yl)-4H-pyrrolo[3,2-d]thiazole-2-carboxamide] had an IC50 of more than 50 µM.
The same measure for `Cc1cc(-c2[nH]c3sc(C(N)=O)nc3c2C(C)C)cn2ncnc12` [Example 391, 6-isopropyl-5-(8-methyl-[1,2,4]triazolo[1,5-a]pyridin-6-yl)-4H-pyrrolo[3,2-d]thiazole-2-carboxamide]: more than 50 µM.
The same measure for `CC(=O)N1CCC(c2nc3c(C(C)C)c(-c4cn5ncnc5c(C)c4C)[nH]c3s2)CC1` [Example 59, 1-(4-(5-(7,8-dimethyl-[1,2,4]triazolo[1,5-a]pyridin-6-yl)-6-isopropyl-4H-pyrrolo[3,2-d]thiazol-2-yl)piperidin-1-yl)ethan-1-one]: more than 50 µM.
As for `Cc1c(-c2[nH]c3sc(CN4CC5(CCOCC5)C4)nc3c2C(C)C)cn2ncnc2c1C` [Example 404, 2-((5-(7,8-dimethyl-[1,2,4]triazolo[1,5-a]pyridin-6-yl)-6-isopropyl-4H-pyrrolo[3,2-d]thiazol-2-yl)methyl)-7-oxa-2-azaspiro[3.5]nonane], the IC50 was more than 50 µM.
Then `CC(C)c1c(-c2cn(C)c3ncccc23)[nH]c2sc(C3CCN(CC(N)=O)CC3)nc12` [Example 31, 2-(4-(6-isopropyl-5-(1-methyl-1H-pyrrolo[2,3-b]pyridin-3-yl)-4H-pyrrolo[3,2-d]thiazol-2-yl)piperidin-1-yl) acetamide], with more than 50 µM; and `Cc1c(-c2[nH]c3sc(CN4CCNC(=O)C4)nc3c2C(C)C)cn2ncnc2c1C` [Example 406, 4-((5-(7,8-dimethyl-[1,2,4]triazolo[1,5-a]pyridin-6-yl)-6-isopropyl-4H-pyrrolo[3,2-d]thiazol-2-yl)methyl) piperazin-2-one], with more than 50 µM; and `Cc1cc(-c2[nH]c3sc(N4CCN(C(=O)CN(C)C)C[C@H]4C)nc3c2C(C)C)cn2ncnc12` [Example 360, (R)-2-(dimethylamino)-1-(4-(6-isopropyl-5-(8-methyl-[1,2,4]triazolo[1,5-a]pyridin-6-yl)-4H-pyrrolo[3,2-d]thiazol-2-yl)-3-methylpiperazin-1-yl)ethan-1-one], with more than 50 µM.
Then `Cc1c(-c2[nH]c3sc(N4CCN(CC(N)=O)C[C@H]4C)nc3c2C(C)C)cn2ncnc2c1C` [Example 313, (R)-2-(4-(5-(7,8-dimethyl-[1,2,4]triazolo[1,5-a]pyridin-6-yl)-6-isopropyl-4H-pyrrolo[3,2-d]thiazol-2-yl)-3-methylpiperazin-1-yl)acetamide], with more than 50 µM; and `Cc1c(-c2[nH]c3sc(N4CCN(CC(N)=O)CC4)nc3c2C(C)C)cn2ncnc2c1C` [Example 285, 2-(4-(5-(7,8-dimethyl-[1,2,4]triazolo[1,5-a]pyridin-6-yl)-6-isopropyl-4H-pyrrolo[3,2-d]thiazol-2-yl)piperazin-1-yl)acetamide], with more than 50 µM; and `CNC(=O)CN1CCC(c2nc3c(C(C)C)c(-c4cn(C)c(=O)c(C)c4C)[nH]c3s2)CC1` [Example 63, 2-(4-(6-isopropyl-5-(1,4,5-trimethyl-6-oxo-1,6-dihydropyridin-3-yl)-4H-pyrrolo[3,2-d]thiazol-2-yl)piperidin-1-yl)-N-methylacetamide], with more than 50 µM.
The same measure for `Cc1cc(-c2[nH]c3sc(C(=O)N4CCOCC4)nc3c2C(C)C)cn2ncnc12` [Example 398, (6-isopropyl-5-(8-methyl-[1,2,4]triazolo[1,5-a]pyridin-6-yl)-4H-pyrrolo[3,2-d]thiazol-2-yl)(morpholino)methanone]: more than 50 µM; for `Cc1c(-c2[nH]c3sc(C(N)=O)nc3c2C(C)C)cn2ncnc2c1C` [Example 385, 5-(7,8-dimethyl-[1,2,4]triazolo[1,5-a]pyridin-6-yl)-6-isopropyl-4H-pyrrolo[3,2-d]thiazole-2-carboxamide]: more than 50 µM; for `Cc1c(-c2[nH]c3sc(C4CCN(CCS(C)(=O)=O)CC4)nc3c2C(C)C)cn2ncnc2c1C` [Example 55, 5-(7,8-dimethyl-[1,2,4]triazolo[1,5-a]pyridin-6-yl)-6-isopropyl-2-(1-(2-(methylsulfonyl)ethyl)piperidin-4-yl)-4H-pyrrolo[3,2-d]thiazole]: more than 50 µM.
Regarding `Cc1c(-c2[nH]c3sc(C4CCN(CC(=O)N(C)C)CC4)nc3c2C(C)C)cn(C)c(=O)c1C` [Example 62, 2-(4-(6-isopropyl-5-(1,4,5-trimethyl-6-oxo-1,6-dihydropyridin-3-yl)-4H-pyrrolo[3,2-d]thiazol-2-yl)piperidin-1-yl)-N,N-dimethylacetamide], the IC50 is more than 50 µM.
Then `CNC(=O)CN1CCN(c2nc3c(C(C)C)c(-c4cn5ncnc5c(C)c4C)[nH]c3s2)CC1` [Example 284, 2-(4-(5-(7,8-dimethyl-[1,2,4]triazolo[1,5-a]pyridin-6-yl)-6-isopropyl-4H-pyrrolo[3,2-d]thiazol-2-yl)piperazin-1-yl)-N-methylacetamide], with more than 50 µM; and `COc1cc(-c2[nH]c3sc(C(=O)NCC(F)(F)F)nc3c2C(C)C)cn2ncnc12` [Example 390, 6-isopropyl-5-(8-methoxy-[1,2,4]triazolo[1,5-a]pyridin-6-yl)-N-(2,2,2-trifluoroethyl)-4H-pyrrolo[3,2-d]thiazole-2-carboxamide], with more than 50 µM.
Then `Cc1c(-c2[nH]c3sc(N4CC5(C4)CN(C4COC4)C5)nc3c2C(C)C)cn2ncnc2c1C` [Example 302, 5-(7,8-dimethyl-[1,2,4]triazolo[1,5-a]pyridin-6-yl)-6-isopropyl-2-(6-(oxetan-3-yl)-2,6-diazaspiro[3.3]heptan-2-yl)-4H-pyrrolo[3,2-d]thiazole], with more than 50 µM.
The same measure for `CNC(=O)CN1CCN(c2nc3c(C(C)C)c(-c4cn5ncnc5c(C)c4C)[nH]c3s2)[C@H](C)C1` [Example 315, (R)-2-(4-(5-(7,8-dimethyl-[1,2,4]triazolo[1,5-a]pyridin-6-yl)-6-isopropyl-4H-pyrrolo[3,2-d]thiazol-2-yl)-3-methylpiperazin-1-yl)-N-methylacetamide]: more than 50 µM; for `CC(C)c1c(-c2cn(C)c3ncccc23)[nH]c2sc(C3CCN(C(=O)CN(C)C)CC3)nc12` [Example 32, 2-(dimethylamino)-1-(4-(6-isopropyl-5-(1-methyl-1H-pyrrolo[2,3-b]pyridin-3-yl)-4H-pyrrolo[3,2-d]thiazol-2-yl)piperidin-1-yl)ethan-1-one]: more than 50 µM.
`Cc1c(-c2[nH]c3sc(N4CCN(CC(=O)N(C)C)C[C@@H]4C)nc3c2C(C)C)cn2ncnc2c1C` [Example 343, (S)-2-(4-(5-(7,8-dimethyl-[1,2,4]triazolo[1,5-a]pyridin-6-yl)-6-isopropyl-4H-pyrrolo[3,2-d]thiazol-2-yl)-3-methylpiperazin-1-yl)-N,N-dimethylacetamide]: the IC50 is more than 50 µM.
Then `Cc1c(-c2[nH]c3sc(N4CCN(CCS(C)(=O)=O)C[C@H]4C)nc3c2C(C)C)cn2ncnc2c1C` [Example 314, (R)-5-(7,8-dimethyl-[1,2,4]triazolo[1,5-a]pyridin-6-yl)-6-isopropyl-2-(2-methyl-4-(2-(methylsulfonyl)ethyl)piperazin-1-yl)-4H-pyrrolo[3,2-d]thiazole], with more than 50 µM.
